Patent publication US11180504B2 (ORCHID PHARMA LTD., priority 2016, dated 2021)
Converted amounts (≈) assume the structure as drawn. Like-named read-outs stand apart in the source and are kept apart here.

Tests used:
[1] = system: methicillin-sensitive Staphylococcus aureus; experiment: MIC by broth micro-dilution (CLSI), methicillin-sensitive S. aureus; format: cell-based; settings: MSSA S. aureus ATCC29213
[2] = system: carbapenem sensitive Escherichia coli; experiment: MIC by broth micro-dilution (CLSI), carbapenem sensitive E. coli; format: cell-based
[3] = system: carbapenemase producing K. pneumoniae; experiment: MIC by broth micro-dilution (CLSI), carbapenemase producing K. pneumoniae; format: cell-based, Klebsiella pneumoniae
[4] = system: carbapenem sensitive Pseudomonas aeruginosa; experiment: MIC by broth micro-dilution (CLSI), carbapenem sensitive P. aeruginosa; format: cell-based
[5] = Staphylococcus aureus, ATCC 29213 / MSSA, read-out: MIC
[6] = Escherichia coli, ATCC25922, ESBL −ve E. coli ATCC25922, read-out: MIC
[7] = Klebsiella pneumoniae, ATCCBAA1705, KPC-2 K. pneumoniae ATCC BAA-1705, read-out: MIC
[8] = Pseudomonas aeruginosa, ATCC27853, Meropenem susceptible P. aeruginosa ATCC27853, read-out: MIC

Compound	MIC [1, 5] [mg/L]	MIC [2, 6] [mg/L]	MIC [3, 7] [mg/L]	MIC [4, 8] [mg/L]	MIC ([1]; Staphylococcus aureus, ATCC29213|MSSA, read-out: MIC) [mg/L]	MIC [1] [mg/L]	MIC ([2]; ESBL −ve E. coli ATCC25922) [mg/L]	MIC ([3]; KPC-2 K. pneumoniae ATCC BAA-1705) [mg/L]	MIC ([4]; Meropenem susceptible P. aeruginosa ATCC27853) [mg/L]
C[C@@H](NC(=O)Cn1cnnn1)[C@H]1C(=O)N2C(C(=O)O)=C(S[C@@H]3CN[C@H](C(=O)N4C[C@H](N)[C@@H](O)[C@H]4CO)C3)[C@H](C)[C@H]12 [Example 549, (4R,5S,6R)-6-((R)-1-(2-(1H-tetrazol-1-yl)acetamido)ethyl)-3-((3S,5S)-5-((2R,3R,4S)-4-amino-3-hydroxy-2-(hydroxymethyl)pyrrolidine-1-carbonyl)pyrrolidin-3-ylthio)-4-methyl-7-oxo-1-azabicyclo[3.2.0]hept-2-ene-2-carboxylic acid]	4 (≈ 6.9 µM)	0.125 (≈ 0.216 µM)	1 (≈ 1.73 µM)	1 (≈ 1.73 µM)					
C[C@@H](NC(=O)Cn1cnnn1)[C@H]1C(=O)N2C(C(=O)O)=C(S[C@@H]3CN[C@H](C(=N)N4CC[C@@H](N)C4)C3)[C@H](C)[C@H]12 [Example 550]		0.25 (≈ 0.469 µM)	2 (≈ 3.75 µM)	8 (≈ 15 µM)	1 (≈ 1.88 µM)				
C[C@@H](NC(=O)Cn1cnnn1)[C@H]1C(=O)N2C(C(=O)O)=C(S[C@@H]3CN[C@H](C(=O)N4CC[C@@H](N)[C@H](O)C4)C3)[C@H](C)[C@H]12 [Example 553, (4R,5S,6R)-6-((R)-1-(2-(1H-tetrazol-1-yl)acetamido)ethyl)-3-((3S,5S)-5-((3R,4R)-4-amino-3-hydroxypiperidine-1-carbonyl)pyrrolidin-3-ylthio)-4-methyl-7-oxo-1-azabicyclo[3.2.0]hept-2-ene-2-carboxylic acid]	2 (≈ 3.55 µM)	0.25 (≈ 0.444 µM)	1 (≈ 1.77 µM)	2 (≈ 3.55 µM)					
C[C@@H](NC(=O)Cn1cnnn1)[C@H]1C(=O)N2C(C(=O)O)=C(S[C@@H]3CN[C@H](C(=O)N4CC[C@H](N)[C@@H](O)C4)C3)[C@H](C)[C@H]12 [Example 554, (4R,5S,6R)-6-((R)-1-(2-(1H-tetrazol-1-yl)acetamido)ethyl)-3-((3S,5S)-5-((3S,4S)-4-amino-3-hydroxypiperidine-1-carbonyl)-pyrrolidin-3-ylthio)-4-methyl-7-oxo-1-azabicyclo[3.2.0]hept-2-ene-2-carboxylic acid]	4 (≈ 7.1 µM)	0.5 (≈ 0.887 µM)	2 (≈ 3.55 µM)	2 (≈ 3.55 µM)					
C[C@@H](NC(=O)Cn1cnnn1)[C@H]1C(=O)N2C(C(=O)O)=C(S[C@@H]3CN[C@H](C(=O)N4CCC5CNCC5(C(=O)O)C4)C3)[C@H](C)[C@H]12 (stereo partly drawn) [Example 562, 5-((2S,4S)-4-((4R,5S,6R)-6-((R)-1-(2-(1H-tetrazol-1-yl)acetamido)ethyl)-2-carboxy-4-methyl-7-oxo-1-azabicyclo[3.2.0]hept-2-en-3-yl-thio)pyrrolidine-2-carbonyl)octahydro-1H-pyrrolo[3,4-c]pyridine-3a-carboxylic acid]	16 (≈ 25.9 µM)	0.5 (≈ 0.809 µM)	2 (≈ 3.24 µM)	2 (≈ 3.24 µM)					
C[C@@H](NC(=O)Cn1cnnn1)[C@H]1C(=O)N2C(C(=O)O)=C(S[C@@H]3CN[C@H](C(=O)N4CCC5CNCC5(C(=O)O)C4)C3)[C@H](C)[C@H]12 (stereo partly drawn) [Example 563, 5-((2S,4S)-4-((4R,5S,6R)-6-((R)-1-(2-(1H-tetrazol-1-yl)acetamido)ethyl)-2-carboxy-4-methyl-7-oxo-1-azabicyclo[3.2.0]hept-2-en-3-yl-thio)pyrrolidine-2-carbonyl)octahydro-1H-pyrrolo[3,4-c]pyridine-3a-carboxylic acid]						16 (≈ 25.9 µM)	0.25 (≈ 0.405 µM)	2 (≈ 3.24 µM)	2 (≈ 3.24 µM)
C[C@@H](NC(=O)Cn1cnnn1)[C@H]1C(=O)N2C(C(=O)O)=C(S[C@@H]3CN[C@H](C(=O)N4CC5C[C@@H]6C[C@]5(CN6)C4)C3)[C@H](C)[C@H]12 (stereo partly drawn) [Example 564, (4R,5S,6R)-6-((R)-1-(2-(1H-tetrazol-1-yl)acetamido)ethyl)-3-((3S,5S)-5-((1S,7R)-3,8-Diaza-tricyclo[5.2.1.01,5]decane-3-carbonyl)-pyrrolidin-3-ylthio)-4-methyl-7-oxo-1-azabicyclo[3.2.0]hept-2-ene-2-carbnxylic acid]	2 (≈ 3.41 µM)	0.125 (≈ 0.213 µM)	1 (≈ 1.71 µM)	1 (≈ 1.71 µM)					
C[C@@H](NC(=O)Cn1cnnn1)[C@H]1C(=O)N2C(C(=O)O)=C(S[C@@H]3CN[C@H](C(=O)N4C[C@H](N)[C@H](NC(=N)N)C4)C3)[C@H](C)[C@H]12 [Example 565, (4R,5S,6R)-6-((R)-1-(2-(1H-tetrazol-1-yl)acetamido)ethyl)-3-((3S,5S)-5-((3S,4R)-3-amino-4-guanidinopyrrolidine-1-carbonyl)-pyrrolidin-3-ylthio)-4-methyl-7-oxo-1-azabicyclo[3.2.0]hept-2-ene-2-carboxylic acid]	2 (≈ 3.39 µM)	0.25 (≈ 0.423 µM)	2 (≈ 3.39 µM)	1 (≈ 1.69 µM)					
C[C@@H](NC(=O)Cn1cnnn1)[C@H]1C(=O)N2C(C(=O)O)=C(S[C@@H]3CN[C@H](C(=O)N4CC(NC(=N)N)C4)C3)[C@H](C)[C@H]12 [Example 566, (4R,5S,6R)-6-((R)-1-(2-(1H-tetrazol-1-yl)acetamido)ethyl)-3-((3S,5S)-5-(3-guanidinoazetidine-1-carbonyl)pyrrolidin-3-ylthio)-4-methyl-7-oxo-1-azabicyclo[3.2.0]hept-2-ene-2-carboxylic acid]	0.5 (≈ 0.89 µM)	0.06 (≈ 0.107 µM)	0.5 (≈ 0.89 µM)	0.25 (≈ 0.445 µM)					
C[C@@H](NC(=O)Cn1cnnn1)[C@H]1C(=O)N2C(C(=O)O)=C(S[C@@H]3CN[C@H](C(=O)N4CC[C@@H](NC(=O)CNC(=N)N)C4)C3)[C@H](C)[C@H]12 [Example 567, (4R,5S,6R)-6-((R)-1-(2-(1H-tetrazol-1-yl)acetamido)ethyl)-3-((3S,5S)-5-((R)-3-(2-guanidinoacetamido)pyrrolidine-1-carbonyl)pyrrolidin-3-ylthio)-4-methyl-7-oxo-1-azabicyclo[3.2.0]hept-2-ene-2-carboxylic acid]	1 (≈ 1.58 µM)	0.125 (≈ 0.198 µM)	0.5 (≈ 0.79 µM)	1 (≈ 1.58 µM)					
C[C@@H](NC(=O)CC1CNC1)[C@H]1C(=O)N2C(C(=O)O)=C(S[C@@H]3CN[C@H](C(=O)N4CC[C@@H](N)C4)C3)[C@H](C)[C@H]12 [Example 568, (4R,5S,6R)-3-((3S,5S)-5-((R)-3-aminopyrrolidine-1-carbonyl)pyrroldin-3-ylthio)-6-((R)-1-(2-(azetidin-3-yl)acetamido)ethyl)-4-methyl-7-oxo-1-azabicyclo[3.2.0]hept-2-ene-2-carboxylic acid]	16 (≈ 30.7 µM)	1 (≈ 1.92 µM)	2 (≈ 3.84 µM)	4 (≈ 7.68 µM)					
C[C@@H](NC(=O)Cn1cnnn1)[C@H]1C(=O)N2C(C(=O)O)=C(S[C@@H]3CN[C@H](C(=O)N4C[C@@]56CNCC5C[C@@H]4C6)C3)[C@H](C)[C@H]12 (stereo partly drawn) [Example 571, (4R,5S,6R)-6-((R)-1-(2-(1H-tetrazol-1-yl)acetamido)ethyl)-3-((3S,5S)-5-((1R,7R)-3,8-Diaza-tricyclo[5.2.1.01,5]decane-8-carbonyl)-pyrrolidin-3-ylthio)-4-methyl-7-oxo-1-azabicyclo[3.2.0]hept-2-ene-2-carboxylic acid]	1 (≈ 1.71 µM)	0.06 (≈ 0.102 µM)	0.5 (≈ 0.854 µM)	1 (≈ 1.71 µM)					
C[C@@H](NC(=O)Cn1cnnn1)[C@H]1C(=O)N2C(C(=O)O)=C(S[C@@H]3CN[C@H](C(=O)N4C[C@H]5C[C@H](N)C[C@@]5(N)C4)C3)[C@H](C)[C@H]12 [Example 574, (4R,5S,6R)-6-((R)-1-(2-(1H-tetrazol-1-yl)acetamido)ethyl)-3-((3S,5S)-5-((3aS,5S,6aR)-3a,5-diaminooctahydrocyclo-penta[c]pyrrole-2-carbonyl)pyrrolidin-3-ylthio)-4-methyl-7-oxo-1-azabicyclo[3.2.0]hept-2-ene-2-carboxylic acid]	8 (≈ 13.6 µM)	0.5 (≈ 0.849 µM)	4 (≈ 6.79 µM)	2 (≈ 3.4 µM)					
C[C@@H](NC(=O)Cn1cnnn1)[C@H]1C(=O)N2C(C(=O)O)=C(S[C@@H]3CN[C@H](C(=O)N4C[C@@H](NC(=N)N)C[C@H]4CO)C3)[C@H](C)[C@H]12 [Example 576, (4R,5S,6R)-6-((R)-1-(2-(1H-tetrazol-1-yl)acetamido)ethyl)-3-((3S,5S)-5-((2S,4S)-4-guanidino-2-(hydroxymethyl)-pyrrolidine-1-carbonyl)pyrrolidin-3-ylthio)-4-methyl-7-oxo-1-azabicyclo[3.2.0]hept-2-ene-2-carboxylic acid]	1 (≈ 1.65 µM)	0.125 (≈ 0.206 µM)	0.5 (≈ 0.826 µM)	0.25 (≈ 0.413 µM)					
C[C@@H](NC(=O)Cn1cnnn1)[C@H]1C(=O)N2C(C(=O)O)=C(S[C@@H]3CN[C@H](C(=O)N4CC5CCN(CCN)C5C4)C3)[C@H](C)[C@H]12 (stereo partly drawn) [Example 577, (4R,5S,6R)-6-((R)-1-(2-(1H-tetrazol-1-yl)acetamido)ethyl)-3-((3S,5S)-5-(1-(2-aminoethyl)octahydropyrrolo[3,4-b]pyrrole-5-carbonyl)pyrrolidin-3-ylthio)-4-methyl-7-oxo-1-azabicyclo[3.2.0]hept-2-ene-2-carboxylic acid]	4 (≈ 6.64 µM)	0.25 (≈ 0.415 µM)	2 (≈ 3.32 µM)	4 (≈ 6.64 µM)					
C[C@@H](NC(=O)Cn1cnnn1)[C@H]1C(=O)N2C(C(=O)O)=C(SCCNC(=N)N)[C@H](C)[C@H]12 [Example 579, (4R,5S,6R)-6-((R)-1-(2-(1H-tetrazol-1-yl)acetamido)ethyl)-3-(2-guanidinoethylthio)-4-methyl-7-oxo-1-azabicyclo[3.2.0]hept-2-ene-carboxylic acid]	4 (≈ 9.14 µM)	0.25 (≈ 0.571 µM)	1 (≈ 2.29 µM)	16 (≈ 36.6 µM)					
